Measured values: patent US5910504A, “Hetero-aromatic ring substituted phenyloxazolidinone antimicrobials” (Pharmacia & Upjohn, priority 1997, dated 1999)
Values after ≈ are worked out from the molar mass of the structure shown. Values joined by “and” are separate entries in the source; they are usually repeats but may differ in a detail not shown here. Identical values can stand only once. Like-named read-outs stand apart in the source and are kept apart here.

How the values were obtained:
S. aureus, UC 9213 [1] = test: In vitro activity: minimum inhibitory concentration (MIC) by agar dilution, S. aureus; type: cell-based; settings: Staphylococcus aureus
Source text: (§1) The oxazolidinone antibacterial agents of this invention have useful activity against a variety of organisms. The in vitro activity of compounds of this invention can be assessed by standard testing procedures such as the determination of minimum inhibitory concentration (MIC) by agar dilution as desribed in "Methods for Dilution Antimicrobial Susceptibility Tests for Bacteria That Grow Aerobically" (MFT) published January 1983 by the National Committee for Clinical Laboratory Standards, 771 East Lancaster Avenue, Villanova, Pa. 19084, USA. The activity of selected compounds of this invention against Staphylococcus aureus and Streptococcus pneumoniae are shown in Table 1.

S. pneumoniae, UC 9912 = test: In vitro activity: minimum inhibitory concentration (MIC) by agar dilution, S. pneumoniae; type: cell-based; settings: Streptococcus pneumoniae
Source text: as §1

S. aureus, UC 9213 [2] = test: In vivo antimicrobial activity, Murine Assay procedure; set-up: species or system Staphylococcus aureus (infected female mice); settings: oral or subcutaneous; for ED50: Staphylococcus aureus, UC9213, 144 h
Procedure: Antimicrobial activity was tested in vivo using the Murine Assay procedure. Groups of female mice (six mice of 18-20 grams each) were injected intraperitoneally with bacteria which were thawed just prior to use and suspended in brain heart infusion with 4% brewers yeast UC9213 (Staphylococcus aureus) or brain heart infusion (Streptococcus species). Antibiotic treatment at six dose levels per drug was administered one hour and five hours after infection by either oral intubation or subcutaneous ("subcut.") routes. Survival was observed daily for six days. ED50 values based on mortality ratios were calculated using probit analysis. The subject compounds were compared against a well-known antimicrobial (Vancomycin) as a control.

[3] = UC9213, agar dilution, read-out: Minimum Inhibitory Concentration, S. aureus, UC 9213
[4] = UC9912, agar dilution, read-out: Minimum Inhibitory Concentration, S. pneumoniae, UC 9912
[5] = female mice, i.p. infection, drug 1 h and 5 h after infection, six-day survival, probit, read-out: ED50, S. aureus, UC 9213

Row | Structure (SMILES) | MIC (S. aureus, UC 9213 [1]; [3]) | MIC (S. pneumoniae, UC 9912; [4]) | other results
1 | COC(=O)c1cn(-c2ccc(N3C[C@H](CNC(C)=O)OC3=O)cc2F)nn1 [Example 20, (S)-N-[[3-[3-Fluoro-4-(4-carbomethoxy-1H-1,2,3-triazol-1-yl)phenyl]-2-oxo-5-oxazolidinyl]methyl]acetamide] | 4 µg/mL (≈ 10.6 µM) | 1 µg/mL (≈ 2.65 µM) | 
2 | CC(=O)NC[C@H]1CN(c2ccc(-n3cnnc3S)c(F)c2)C(=O)O1 [Example 9, (S)-N-[[3-[3-Fluoro-4-(3-mercapto-4H-1,2,4-triazol-4-yl)phenyl]-2-oxo-5-oxazolidinyl]methyl]acetamide] | > 32 µg/mL | 8 µg/mL (≈ 22.8 µM) | 
3 | CC(=O)NC[C@H]1CN(c2ccc(-n3ccc(CCCO)c3)c(F)c2)C(=O)O1 [Example 25, (S)-N-[[3-[3-Fluoro-4-[3-(3-hydroxypropyl)-1H-pyrrol-1-yl]phenyl]-2-oxo-5-oxazolidinyl]methyl]acetamide] | 4 µg/mL (≈ 10.7 µM) | 0.5 µg/mL (≈ 1.33 µM) | 
4 | CCOC(=O)C=Cc1ccn(-c2ccc(N3C[C@H](CNC(C)=O)OC3=O)cc2F)c1 [Example 23, (S)-N-[[3-[3-Fluoro-4-[3-(2-carboethoxyvinyl)-1H-pyrrol-1-yl]phenyl]-2-oxo-5-oxazolidinyl]methyl]acetamide] | 4 µg/mL (≈ 9.63 µM) | 0.5 µg/mL (≈ 1.2 µM) | 
5 | CC(=O)NC[C@H]1CN(c2ccc(-n3ccc4ccccc43)c(F)c2)C(=O)O1 [Example 5, (S)-N-[[3-[3-Fluoro-4-(1H-indol-1-yl)phenyl]-2-oxo-5-oxazolidinyl]methyl]acetamide] | 4 µg/mL (≈ 10.9 µM) | 1 µg/mL (≈ 2.72 µM) | 
6 | CCOC(=O)CCc1ccn(-c2ccc(N3C[C@H](CNC(C)=O)OC3=O)cc2F)c1 [Example 24, (S)-N-[[3-[3-Fluoro-4-[3-(2-carboethoxyethyl)-1H-pyrrol-1-yl]phenyl]-2-oxo-5-oxazolidinyl]methyl]acetamide] | 4 µg/mL (≈ 9.58 µM) | 0.5 µg/mL (≈ 1.2 µM) | 
7 | CC(=O)NC[C@H]1CN(c2ccc(-n3ccc(CCCNS(C)(=O)=O)c3)c(F)c2)C(=O)O1 [Example 26, (S)-N-[[3-[3-Fluoro-4-[3-(3-methanesulfonylaminopropyl)-1H-pyrrol-1-yl]phenyl]-2-oxo-5-oxazolidinyl]methyl]acetamide] | 8 µg/mL (≈ 17.7 µM) | 0.5 µg/mL (≈ 1.1 µM) | 
8 | CC(=O)NC[C@H]1CN(c2ccc(-n3cncn3)c(F)c2)C(=O)O1 [Example 4, (S)-N-[[3-[3-Fluoro-4-(1H-1,2,4-triazol-1-yl)phenyl]-2-oxo-5-oxazolidinyl]methyl]acetamide] | 4 µg/mL (≈ 12.5 µM) | 1 µg/mL (≈ 3.13 µM) | ED50 (S. aureus, UC 9213 [2]; [5]): 5.7 mg/kg
9 | CC(=O)NC[C@H]1CN(c2ccc(-n3cnnc3)c(F)c2)C(=O)O1 [Example 11, (S)-N-[[3-[3-Fluoro-4-(4H-1,2,4-triazol-4-yl)phenyl]-2-oxo-5-oxazolidinyl]methyl]acetamide] | > 16 µg/mL | 1 µg/mL (≈ 3.13 µM) | 
10 | CC(=O)NC[C@H]1CN(c2ccc(-n3cc(C(C)=NO)nn3)c(F)c2)C(=O)O1 [Example 19] | 4 µg/mL (≈ 10.6 µM) | 0.5 µg/mL (≈ 1.33 µM) | 
11 | CC(=O)NC[C@H]1CN(c2ccc(-n3nccn3)c(F)c2)C(=O)O1 [Example 8, (S)-N-[[3-[3-Fluoro-4-(2H-1,2,3-triazol-2-yl)phenyl]-2-oxo-5-oxazolidinyl]methyl]acetamide] | 4 µg/mL (≈ 12.5 µM) | 1 µg/mL (≈ 3.13 µM) | 
12 | CSc1nncn1-c1ccc(N2C[C@H](CNC(C)=O)OC2=O)cc1F [Example 10, (S)-N-[[3-[3-Fluoro-4-(3-methylthio-4H-1,2,4-triazol-4-yl)phenyl]-2-oxo-5-oxazolidinyl]methyl]acetamide] | 8 µg/mL (≈ 21.9 µM) | 1 µg/mL (≈ 2.74 µM) | 
13 | CC(=O)NC[C@H]1CN(c2ccc(-n3cc(C(C)O)nn3)c(F)c2)C(=O)O1 (stereo partly drawn) [Example 18, (S)-N-[[3-[3-Fluoro-4-(4-(1-hydroxyethyl)-1H-1,2,3-triazol-1-yl)phenyl]-2-oxo-5-oxazolidinyl]methyl]acetamide] | 4 µg/mL (≈ 11 µM) | 0.5 µg/mL (≈ 1.38 µM) | 
14 | CC(=O)NC[C@H]1CN(c2ccc(-n3cc(CO)cn3)c(F)c2)C(=O)O1 [Example 22, (S)-N-[[3-[3-Fluoro-4-(4-hydroxymethyl-1H-pyrazol-1-yl)phenyl]-2-oxo-5-oxazolidinyl]methyl]acetamide] | 8 µg/mL (≈ 23 µM) | 0.5 µg/mL (≈ 1.44 µM) | 
15 | CN[C@H](CC(C)C)C(=O)N[C@H]1C(=O)N[C@@H](CC(N)=O)C(=O)N[C@H]2C(=O)N[C@H]3C(=O)N[C@H](C(=O)N[C@H](C(=O)O)c4cc(O)cc(O)c4-c4cc3ccc4O)[C@H](O)c3ccc(c(Cl)c3)Oc3cc2cc(c3O[C@@H]2O[C@H](CO)[C@@H](O)[C@H](O)[C@H]2O[C@H]2C[C@](C)(N)[C@H](O)[C@H](C)O2)Oc2ccc(cc2Cl)[C@H]1O [Vancomycin, reference compound] |  |  | MIC (S. aureus, UC 9213 [1]; UC9213, read-out: Minimum Inhibitory Concentration, S. aureus, UC 9213): 1 µg/mL (≈ 0.69 µM); MIC (S. pneumoniae, UC 9912; UC9912, read-out: Minimum Inhibitory Concentration, S. pneumoniae, UC 9912): 0.5 µg/mL (≈ 0.345 µM); ED50 (S. aureus, UC 9213 [2]; read-out: Control, ED50, control drug run alongside each test compound, S. aureus UC 9213, female mice): 2.2 mg/kg; Control, ED50 (S. aureus, UC 9213 [2]; control drug run alongside each test compound, S. aureus UC 9213, female mice, 8640 min): 2.4 mg/kg and 2.0 mg/kg and 1.2 mg/kg

Further lines, with some results ahead:

Row | MIC (S. aureus, UC 9213 [1]; [3]) | MIC (S. pneumoniae, UC 9912; [4]) | Structure (SMILES) | other results
16 | 1 µg/mL (≈ 2.67 µM) | 0.25 µg/mL (≈ 0.668 µM) | CON=Cc1ccn(-c2ccc(N3C[C@H](CNC(C)=O)OC3=O)cc2F)c1 [Example 15, (S)-N-[[3-[3-Fluoro-4-(1H-pyrrol-1-yl-3-carboxaldehyde)phenyl]-2-oxo-5-oxazolidinyl]methyl]acetamide, methoxime] | ED50 (S. aureus, UC 9213 [2]; [5]): 7.3 mg/kg
17 | 1 µg/mL (≈ 2.58 µM) | < 0.5 µg/mL | O=C(NC[C@H]1CN(c2ccc(-n3ccnn3)c(F)c2)C(=O)O1)C(Cl)Cl [Example 7, (S)-N-[[3-[3-Fluoro-4-(1H-1,2,3-triazol-1-yl)phenyl]-2-oxo-5-oxazolidinyl]methyl]-2,2-dichloroacetamide] | ED50 (S. aureus, UC 9213 [2]; [5]): 11.9 mg/kg
18 | 2 µg/mL (≈ 6.28 µM) | < 0.5 µg/mL | CC(=O)NC[C@H]1CN(c2ccc(-n3ccnc3)c(F)c2)C(=O)O1 [Example 3, (S)-N-[[3-[3-Fluoro-4-(1H-imidazol-1-yl)phenyl]-2-oxo-5-oxazolidinyl]methyl]acetamide] | ED50 (S. aureus, UC 9213 [2]; [5]): 9.5 mg/kg
19 | < 0.5 µg/mL | < 0.5 µg/mL | CC(=O)NC[C@H]1CN(c2ccc(-n3cccc3)c(F)c2)C(=O)O1 [Example 1, (S)-N-[[3-[3-Fluro-4-(1H-pyrrol-1-yl)phenyl]-2-oxo-5-oxazolidinyl]methyl]acetamide] | 
20 | 2 µg/mL (≈ 6.28 µM) | 1 µg/mL (≈ 3.14 µM) | CC(=O)NC[C@H]1CN(c2ccc(-n3cccn3)c(F)c2)C(=O)O1 [Example 2, (S)-N-[[3-[3-Fluoro-4-(1H-pyrazol-1-yl)phenyl]-2-oxo-5-oxazolidinyl]methyl]acetamide] | 
21 | 1 µg/mL (≈ 2.78 µM) | < 0.25 µg/mL | CC(=O)NC[C@H]1CN(c2ccc(-n3ccc(C=NO)c3)c(F)c2)C(=O)O1 [Example 16, (S)-N-[[3-[3-Fluoro-4-(3-(hydroxyiminomethyl)-1H-pyrrol-1-yl)phenyl]-2-oxo-5-oxazolidinyl]methyl]acetamide] | ED50 (S. aureus, UC 9213 [2]; [5]): 5.5 mg/kg
22 | 1 µg/mL (≈ 3.13 µM) | < 0.5 µg/mL | CC(=O)NC[C@H]1CN(c2ccc(-n3ccnn3)c(F)c2)C(=O)O1 [Example 6, (S)-N-[[3-[3-Fluoro-4-(1H-1,2,3-triazol-1-yl)phenyl]-2-oxo-5-oxazolidinyl]methyl]acetamide] | ED50 (S. aureus, UC 9213 [2]; [5]): 4.7 mg/kg
23 | 1 µg/mL (≈ 2.77 µM) | 0.5 µg/mL (≈ 1.38 µM) | CC(=O)NC[C@H]1CN(c2ccc(-n3cc(C(C)=O)nn3)c(F)c2)C(=O)O1 [Example 17, (S)-N-[[3-[3-Fluoro-4-(4-acetyl-1H-1,2,3-triazol-1-yl)phenyl]-2-oxo-5-oxazolidinyl]methyl]acetamide] | 
24 | 0.25 µg/mL (≈ 0.724 µM) | < 0.06 µg/mL | CC(=O)NC[C@H]1CN(c2ccc(-n3ccc(C=O)c3)c(F)c2)C(=O)O1 [Example 12, (S)-N-[[3-[3-Fluoro-4-(1H-pyrrol-1-yl-3-carboxaldehyde)phenyl]-2-oxo-5-oxazolidinyl]methyl]acetamide] | 
25 | 0.5 µg/mL (≈ 1.44 µM) | 0.25 µg/mL (≈ 0.72 µM) | CC(=O)NC[C@H]1CN(c2ccc(-n3cc(C=O)nn3)c(F)c2)C(=O)O1 [Example 21, (S)-N-[[3-[3-Fluoro-4-(1H-1,2,3-triazol-1-yl-4-carboxaldehyde)phenyl]-2-oxo-5-oxazolidinyl]methyl]acetamide] | 
26 | 1 µg/mL (≈ 2.88 µM) | 0.25 µg/mL (≈ 0.72 µM) | CC(=O)NC[C@H]1CN(c2ccc(-n3ccc(CO)c3)c(F)c2)C(=O)O1 [Example 13, (S)-N-[[3-[3-Fluoro-4-(3-hydroxymethyl-1H-pyrrol-1-yl)phenyl]-2-oxo-5-oxazolidinyl]methyl]acetamide] | 
27 | 2 µg/mL (≈ 5.33 µM) | 0.25 µg/mL (≈ 0.666 µM) | COC(=O)c1ccn(-c2ccc(N3C[C@H](CNC(C)=O)OC3=O)cc2F)c1 [Example 14, (S)-N-[[3-[3-Fluoro-4-(3-carbomethoxy-1H-pyrrol-1-yl)phenyl]-2-oxo-5-oxazolidinyl]methyl]acetamide] | 
